Data reported in patent US12448373B2, “Azetidinyl-acetamides as CXCR7 inhibitors” (CHEMOCENTRYX, INC., priority 2021, dated 2025).

What follows are compounds tested against T1, CXCR7 (Homo sapiens, UniProt P25106) (assay: CXCR7 β-arrestin recruitment assay in CHO-CXCR7 cells (ProLink/EA β-galactosidase complementation), induced by human SDF-1a). Settings: assay buffer, SDF-1a at EC50 concentration.
T1 construct: expressed in transfected cells; host or cells: CHO cells (CHO-CXCR7), transgenes maintained with Hygromycin B and G418
T1 sequence (P25106 whole entry): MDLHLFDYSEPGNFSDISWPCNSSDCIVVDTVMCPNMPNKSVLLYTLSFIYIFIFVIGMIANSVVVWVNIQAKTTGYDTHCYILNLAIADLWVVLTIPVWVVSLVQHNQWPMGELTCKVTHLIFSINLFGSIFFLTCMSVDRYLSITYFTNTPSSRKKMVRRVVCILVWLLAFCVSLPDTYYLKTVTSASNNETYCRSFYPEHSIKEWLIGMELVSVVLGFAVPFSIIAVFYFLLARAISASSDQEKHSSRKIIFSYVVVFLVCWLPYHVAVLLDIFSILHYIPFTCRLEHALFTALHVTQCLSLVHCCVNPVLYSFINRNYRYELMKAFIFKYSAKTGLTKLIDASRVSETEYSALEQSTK
Format: cell-based
Summary of the method: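 CHO cells co-expressing ProLink-tagged CXCR7 and β-arrestin-EA were pre-plated overnight, then given compound and human SDF-1α at its same-day EC50. After 1.5 h at 37 °C, complemented β-galactosidase was read from 0.4 mM 3-carboxyumbelliferyl β-D-galactopyranoside (30 min, 37 °C; ex 360/em 465 nm). IC50 by 3-parameter fit.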

| SMILES | IC50 [µM] |
| --- | --- |
| Cc1cc(C)nc(C(C)(C)NC(=O)CC2(NC(=O)c3nnc(-c4ccc(F)cc4F)o3)CN([C@H]3CC[C@](C)(O)CC3)C2)n1 [Example 1.055] | 0.1 to 1 |
| C[C@]1(O)CC[C@@H](N2CC(CC(=O)NC3(c4ccccn4)CC3)(NC(=O)c3cc(-c4ccc(F)cc4F)on3)C2)CC1 [Example 1.190] | 0.005 to 0.1 |
| CC(C)(NC(=O)CC1(NC(=O)c2cn(-c3ccc(F)cc3)nn2)CN([C@H]2CC[C@](C)(O)CC2)C1)c1ccccc1 [Example 1.084] | 0.1 to 1 |
| COc1cc(F)cc(C(C)(C)NC(=O)CC2(NC(=O)c3cc(-c4ccc(F)cc4F)on3)CN([C@H]3CC[C@@](C)(O)CC3)C2)c1 [Example 1.169] | < 0.005 |
| CCc1cc(C(C)(C)NC(=O)CC2(NC(=O)c3cc(-c4ccc(F)cc4F)on3)CN([C@H]3CC[C@](C)(O)CC3)C2)ccn1 [Example 1.149] | 0.005 to 0.1 |
| CC(C)(NC(=O)CC1(NC(=O)c2cc(-c3ccc(F)cc3F)on2)CN([C@H]2CC[C@](C)(O)CC2)C1)c1ncccc1F [Example 1.021] | 0.005 to 0.1 |
| CC(C)(NC(=O)CC1(NC(=O)c2cc(-c3ccc(F)cc3F)sn2)CN([C@H]2CC[C@@](C)(O)CC2)C1)c1cccc(Cl)c1 [Example 1.043] | 0.1 to 1 |
| CC(C)(NC(=O)CC1(NC(=O)c2cc(-c3ccc(F)cc3F)on2)CN([C@H]2CC[C@](C)(O)CC2)C1)c1cc(F)cc(F)c1 [Example 1.153] | < 0.005 |
| CC(C)CN1CC(CC(=O)NC(C)(C)c2ccnc3[nH]ccc23)(NC(=O)c2cc(-c3ccc(F)cc3F)on2)C1 [Example 1.077] | < 0.005 |
| CC(C)(O)CN1CC(CC(=O)NC(C)(C)c2cccc(C#N)c2)(NC(=O)c2cc(-c3ccc(F)cc3F)on2)C1 [Example 1.145] | 0.005 to 0.1 |
| Cc1cccc(C(C)(C)NC(=O)CC2(NC(=O)c3nnc(-c4ccc(F)cc4F)s3)CN([C@H]3CC[C@](C)(O)CC3)C2)n1 [Example 1.032] | < 0.005 |
| CC(C)(NC(=O)CC1(NC(=O)c2cc(-c3ccc(F)cc3F)on2)CN([C@H]2CC[C@](C)(O)CC2)C1)c1cc(Cl)ccc1F [Example 1.133] | < 0.005 |
| CC(C)(F)CN1CC(CC(=O)NC(C)(C)c2ccccn2)(NC(=O)c2cc(-c3ccc(F)cc3F)on2)C1 [Example 1.104] | 1 to 20 |
| CC(C)(NC(=O)CC1(NC(=O)c2cc(-c3ccc(F)cc3F)on2)CN([C@H]2CC[C@@](C)(O)CC2)C1)c1cccc(C(F)(F)F)n1 [Example 1.155] | < 0.005 |
| COc1cc(C(C)(C)NC(=O)CC2(NC(=O)c3cc(-c4ccc(F)cc4F)on3)CN([C@H]3CC[C@](C)(O)CC3)C2)ccc1F [Example 1.177] | 0.005 to 0.1 |
| CC(C)(NC(=O)CC1(NC(=O)c2cc(-c3ccc(F)cc3F)on2)CN(CCC(F)(F)F)C1)c1ccccn1 [Example 1.019] | 0.1 to 1 |
| CC(C)(NC(=O)CC1(NC(=O)c2nnc(-c3ccc(F)cc3F)s2)CN([C@H]2CC[C@](C)(O)CC2)C1)c1ccccn1 [Example 1.063] | 0.005 to 0.1 |
| COc1cc(C(C)(C)NC(=O)CC2(NC(=O)c3cc(-c4ccc(F)cc4F)on3)CN([C@H]3CC[C@@](C)(O)CC3)C2)ccc1F [Example 1.176] | 0.005 to 0.1 |

| SMILES | IC50 [µM] |
| --- | --- |
| CC(C)(NC(=O)CC1(NC(=O)c2cc(-c3ccc(F)cc3F)on2)CN([C@H]2CC[C@](C)(O)CC2)C1)c1cnccn1 [Example 1.158] | 0.005 to 0.1 |
| CCc1cc(C(C)(C)NC(=O)CC2(NC(=O)c3cc(-c4ccc(F)cc4F)on3)CN([C@H]3CC[C@@](C)(O)CC3)C2)ccn1 [Example 1.148] | 0.005 to 0.1 |
| Cc1ccc(F)c(C(C)(C)NC(=O)CC2(NC(=O)c3cc(-c4ccc(F)cc4F)on3)CN([C@H]3CC[C@](C)(O)CC3)C2)n1 [Example 1.008] | < 0.005 |
| Cc1ccc(F)c(C(C)(C)NC(=O)CC2(NC(=O)c3nnc(-c4ccc(F)cc4F)s3)CN([C@H]3CC[C@](C)(O)CC3)C2)n1 [Example 1.005] | < 0.005 |
| CC(C)(NC(=O)CC1(NC(=O)c2nnc(-c3ccc(F)cc3F)s2)CN([C@H]2CC[C@](C)(O)CC2)C1)c1cccc(C#N)c1 [Example 1.025] | 0.005 to 0.1 |
| Cc1cc(C(C)(C)NC(=O)CC2(NC(=O)c3cc(-c4ccc(F)cc4F)on3)CN(CC(C)(C)O)C2)ccn1 [Example 1.175] | 0.005 to 0.1 |
| CC(C)(NC(=O)CC1(NC(=O)c2noc(-c3ccc(F)cc3F)n2)CN([C@H]2CC[C@](C)(O)CC2)C1)c1ccccc1 [Example 1.078] | 0.1 to 1 |
| CC(C)(NC(=O)CC1(NC(=O)c2cc(-c3ccc(F)cc3F)n[nH]2)CN([C@H]2CC[C@](C)(O)CC2)C1)c1cccc(Cl)c1 [Example 1.054] | 1 to 20 |
| CC(C)(NC(=O)CC1(NC(=O)c2cc(-c3ccc(F)cc3F)on2)CN(C2CCCCC2)C1)c1ccnc2[nH]ccc12 [Example 1.082] | < 0.005 |
| CC(C)CN1CC(CC(=O)NC(C)(C)c2cncc(Cl)c2)(NC(=O)c2cc(-c3ccc(F)cc3F)on2)C1 [Example 1.016] | 0.005 to 0.1 |
| CC(C)(NC(=O)CC1(NC(=O)c2cc(-c3ccc(F)cc3F)on2)CN([C@H]2CC[C@](C)(C(=O)O)CC2)C1)c1ccccn1 [Example 1.108] | 0.1 to 1 |
| Cc1cc(C(C)(C)NC(=O)CC2(NC(=O)c3cc(-c4ccc(F)cc4F)on3)CN(CC(C)C)C2)ccn1 [Example 1.122] | 0.005 to 0.1 |
| CC(C)(NC(=O)CC1(NC(=O)c2cc(-c3ccc(F)cc3F)on2)CN([C@H]2CC[C@@](C)(O)CC2)C1)c1cccc2cc[nH]c12 [Example 1.115] | < 0.005 |
| C[C@]1(O)CC[C@H](N2CC(CC(=O)NCc3cccc(Cl)c3)(NC(=O)c3cc(-c4ccc(F)cc4F)on3)C2)CC1 [Example 1.110] | 1 to 20 |
| Cc1cc(C(C)(C)NC(=O)CC2(NC(=O)c3cc(-c4ccc(F)cc4F)on3)CN([C@H]3CC[C@](C)(O)CC3)C2)cc(C)n1 [Example 1.112] | 0.005 to 0.1 |
| Cc1cc(C)nc(C(C)(C)NC(=O)CC2(NC(=O)c3cc(-c4ccc(F)cc4F)n[nH]3)CN([C@H]3CC[C@@](C)(O)CC3)C2)n1 [Example 1.052] | 1 to 20 |
| Cc1cc(Cl)cc(C(C)(C)NC(=O)CC2(NC(=O)c3nnc(-c4ccc(F)cc4F)s3)CN([C@H]3CC[C@](C)(O)CC3)C2)n1 [Example 1.006] | < 0.005 |

Results, then the compound that gave them:

| IC50 [µM] | SMILES |
| --- | --- |
| 0.005 to 0.1 | CC(C)(NC(=O)CC1(NC(=O)c2cc(-c3ccc(F)cc3F)on2)CN([C@H]2CC[C@](C)(O)CC2)C1)c1cccc(C(F)(F)F)c1 [Example 1.199] |
| 0.1 to 1 | Cc1ccc(C(C)(C)NC(=O)CC2(NC(=O)c3cc(-c4ccc(F)cc4F)on3)CN([C@H]3CC[C@@](C)(O)CC3)C2)cc1 [Example 1.242] |
| 0.1 to 1 | CC(C)(O)CN1CC(CC(=O)NC(C)(C)c2ccc(F)cc2)(NC(=O)c2cc(-c3ccc(F)cc3F)on2)C1 [Example 1.248] |
| 0.005 to 0.1 | CC[C@@H](NC(=O)CC1(NC(=O)c2cc(-c3ccc(F)cc3F)on2)CN(C2CCCCC2)C1)c1ccccc1 [Example 1.307] |
| 0.1 to 1 | O=C(CC1(NC(=O)c2cc(-c3ccc(F)cc3F)on2)CN(CC2CC2)C1)NC1(c2ccccc2)CC1 [Example 1.321] |
| 0.005 to 0.1 | CC(C)(NC(=O)CC1(NC(=O)c2cc(-c3ccc(F)cc3F)on2)CN([C@H]2CC[C@@](C)(O)CC2)C1)c1ccc(F)cc1 [Example 1.259] |
| 0.005 to 0.1 | CC(C)(NC(=O)CC1(NC(=O)c2cc(-c3ccc(F)cc3F)on2)CN(C2CCC3(CC2)COC3)C1)c1cccc(F)c1 [Example 1.234] |
| 0.005 to 0.1 | COC1(C)CCC(N2CC(CC(=O)NC(C)(C)c3ccccn3)(NC(=O)c3cc(-c4ccc(F)cc4F)on3)C2)CC1 (stereo not shown) [Example 1.285] |
| < 0.005 | Cc1cc(C)nc(C(C)(C)NC(=O)CC2(NC(=O)c3cc(-c4ccc(F)cc4F)on3)CN(C3CC(C)(C)OC(C)(C)C3)C2)n1 [Example 1.355] |
| < 0.005 | Cc1cccc(C(C)(C)NC(=O)CC2(NC(=O)c3cc(-c4ccc(F)cc4F)on3)CN(C3CCCCC3)C2)n1 [Example 1.293] |
| 0.005 to 0.1 | Cc1cc(C(C)(C)NC(=O)CC2(NC(=O)c3nnc(-c4ccc(F)cc4F)s3)CN([C@H]3CC[C@](C)(O)CC3)C2)ccn1 [Example 1.335] |
| < 0.005 | COc1cccc(C(C)(C)NC(=O)CC2(NC(=O)c3cc(-c4ccc(F)cc4F)on3)CN([C@H]3CC[C@@](C)(O)CC3)C2)n1 [Example 1.203] |
| < 0.005 | CC(C)(NC(=O)CC1(NC(=O)c2cc(-c3ccc(F)cc3F)on2)CN([C@H]2CC[C@@](C)(O)CC2)C1)c1cc(F)ccc1F [Example 1.235] |
| < 0.005 | CCc1cccc(C(C)(C)NC(=O)CC2(NC(=O)c3cc(-c4ccc(F)cc4F)on3)CN([C@H]3CC[C@@](C)(O)CC3)C2)c1 [Example 1.208] |
| 0.1 to 1 | CC(C)(NC(=O)CC1(NC(=O)c2cc(-c3ccc(F)cc3F)on2)CN(CC2CCOC2)C1)c1ccccn1 (stereo not shown) [Example 1.223] |
| 0.005 to 0.1 | CC(C)(NC(=O)CC1(NC(=O)c2cc(-c3ccc(F)cc3F)on2)CN(C2CCC(F)(F)CC2)C1)c1ccccn1 [Example 1.319] |
| 0.1 to 1 | Cc1cc(C)nc(C(C)(C)NC(=O)CC2(NC(=O)c3cc(-c4ccc(F)cc4F)on3)CN(C3CCOC3(C)C)C2)n1 (stereo not shown) [Example 1.353] |
| < 0.005 | Cc1ccnc(C(C)(C)NC(=O)CC2(NC(=O)c3cc(-c4ccc(F)cc4F)on3)CN([C@H]3CC[C@](C)(O)CC3)C2)n1 [Example 1.202] |
| 1 to 20 | COc1ccc(C(C)(C)NC(=O)CC2(NC(=O)c3cc(-c4ccc(F)cc4F)on3)CN([C@H]3CC[C@](C)(O)CC3)C2)cc1 [Example 1.244] |
| 0.005 to 0.1 | CC(C)(NC(=O)CC1(NC(=O)c2cc(-c3ccc(F)cc3F)on2)CN(C2CCCCC2)C1)c1nccs1 [Example 1.276] |
| 1 to 20 | O=C(CC1(NC(=O)c2cc(-c3ccc(F)cc3F)on2)CN(C2CCCCC2)C1)N[C@@H](CO)c1ccccc1 [Example 1.310] |
| 0.005 to 0.1 | COc1ccc(F)c(C(C)(C)NC(=O)CC2(NC(=O)c3cc(-c4ccc(F)cc4F)on3)CN([C@H]3CC[C@](C)(O)CC3)C2)c1 [Example 1.206] |
| 0.005 to 0.1 | O=C(CC1(NC(=O)c2cc(-c3ccc(F)cc3F)on2)CN(CC2CC2)C1)NC1(c2ncccn2)CC1 [Example 1.334] |
